The values below come from US7932050B2, “Enzymatic substrates derived from phenoxazinone and their use as developers in detection of microorganisms with peptidase activity” (bioMerieux, priority 2004, dated 2011).

Molecules are shown by their SMILES. Read-outs that look alike come from different tables or passages of the source.

Common to all, as to format: cell-based
Assay [1] relates to Pseudomonas maltophilia. In words: Detection of β-alanine peptidase activity (example 9), colony coloration. As to conditions: between 24 and 48 h of incubation.
The test system of assay [2] is Acinetobacter calcoaceticus. The description is as above. As to conditions: between 24 and 48 h of incubation.
The test system of assay [3] is Ralstonia taiwanensis. As to conditions: between 24 and 48 h of incubation.
The test system of assay [4] is Pseudomonas aeruginosa. In words: Detection of β-alanine peptidase activity (example 9), colony coloration. Particulars: between 24 and 48 h of incubation, no accession No.
Assay [5] relates to Acinetobacter baumannii ATCC 19606. The assay is described as above. As to conditions: between 24 and 48 h of incubation; strain ATCC 19606.
Assay [6] deals with Burkholderia cepacia GI LMG1222. The assay is described as above. Particulars: between 24 and 48 h of incubation; strain LMG1222.
Assay [7] relates to Pseudomonas fragilis NCIMB 8987. The description is as above. Particulars: between 24 and 48 h of incubation; strain NCIMB 8987.
In assay [8] the test system is Burkholderia cepacia GIII LMG 18832. The assay is described as above. Particulars: between 24 and 48 h of incubation; strain LMG 18832.
Assay [9] has as its system Ralstonia basilensis. Particulars: between 24 and 48 h of incubation.
For assay [10], the system named is Acinetobacter calcoaceticus. In words: Detection of pyroglutamyl peptidase activity (example 10), colony coloration. As to conditions: between 24 and 48 h of incubation.
Assay [11] relates to Pseudomonas fragilis NCIMB 8987. The description is as above. As to conditions: between 24 and 48 h of incubation; strain NCIMB 8987.
Assay [12] has as its system Pseudomonas aeruginosa. The assay is described as above. Particulars: between 24 and 48 h of incubation, no accession No.
Assay [13] concerns Burkholderia cepacia GIII LMG 18832. The description is as above. As to conditions: between 24 and 48 h of incubation; strain LMG 18832.
The subject of assay [14] is Burkholderia cepacia GI LMG1222. Described as above. Particulars: between 24 and 48 h of incubation; strain LMG1222.
The test system of assay [15] is Acinetobacter baumannii ATCC 19606. Described as above. As to conditions: between 24 and 48 h of incubation; strain ATCC 19606.
In assay [16] the test system is Ralstonia taiwanensis. Particulars: between 24 and 48 h of incubation. The source holds these as a separate data set.
Assay [17] relates to Pseudomonas maltophilia. In words: Detection of pyroglutamyl peptidase activity (example 10), colony coloration. Particulars: between 24 and 48 h of incubation.
The subject of assay [18] is Pseudomonas fluorescens. Described as above. Particulars: between 24 and 48 h of incubation.
Assay [19] relates to Ralstonia basilensis. Particulars: between 24 and 48 h of incubation. The source holds these as a separate data set.
The test system of assay [20] is Pseudomonas fluorescens. In words: Detection of β-alanine peptidase activity (example 11), colony coloration. Particulars: between 24 and 48 h of incubation; Applicant's collection.
In a further assay the test system is Pseudomonas putida. The description is as above. Particulars: between 24 and 48 h of incubation; Applicant's collection.
In assay [21] the test system is Burkholderia cepacia LMG 18941. The assay is described as above. As to conditions: between 24 and 48 h of incubation; strain LMG 18941.
Assay [22] concerns Pseudomonas aeruginosa. Described as above. Particulars: between 24 and 48 h of incubation.
In another assay the test system is Escherichia coli. The assay is described as above. Particulars: between 24 and 48 h of incubation; Applicant's collection.
The subject of assay [23] is Burkholderia Gladioli LGM 6880. Described as above. Particulars: between 24 and 48 h of incubation; strain LGM 6880.
Setting [24] is: first P. aeruginosa strain of table 2 (r6).
The mark [25] stands for this setting: fourth P. aeruginosa strain of table 2 (r12).
The mark [26] stands for this setting: second P. aeruginosa strain of table 2 (r8).
Setting [27] is: third P. aeruginosa strain of table 2 (r10).
Setting [28] is: first P. aeruginosa strain of table 3 (r6).
The mark [29] stands for this setting: second P. aeruginosa strain of table 3 (r8).
The mark [30] stands for this setting: third P. aeruginosa strain of table 3 (r10).

As for `CCCCCc1c2nc3ccc(NC(=O)CCNC(=O)OC(C)(C)C)cc3oc-2cc(=O)c1Cl` [Chlorinated beta-alanyl compound, 7-N—(N′-t-butoxycarbonyl-β-alanyl)amino-2-chloro-1-pentylphenoxazin-3-one], the coloration result is “colorless” in the assay on Pseudomonas maltophilia [1]; “colorless” in assay [2]; “colorless” with Ralstonia taiwanensis [3]; “purple” with Pseudomonas aeruginosa [4] (setting [24]); “purple” in the assay with Pseudomonas aeruginosa [4] (setting [25]); “pale purple” in the assay on Pseudomonas aeruginosa [4] (setting [26]). In addition, the coloration entry is on record as “pale purple” in the assay with Pseudomonas aeruginosa [4] (setting [27]); “colorless” in assay [5]; “yellow” in [6]; “colorless” in [7]; “yellow” in assay [8]; “colorless” in the assay with Ralstonia basilensis [9].
With `CCCCCc1c2nc3ccc(NC(=O)[C@@H]4CCC(=O)N4)cc3oc-2cc(=O)c1Cl` [Chlorinated pyroglutamyl compound, 7-N-(L-pyroglutamyl)amino-2-chloro-1-pentylphenoxazin-3-one], the coloration result in assay [10] is “colorless”; in assay [11], “colorless”; with Pseudomonas aeruginosa [12] (setting [28]) it was “purple”; in the assay with Pseudomonas aeruginosa [12] (setting [29]), “purple”; in the assay with Pseudomonas aeruginosa [12] (setting [30]), “purple”; in assay [13] it was “yellow”. Moreover, the coloration result in [14] is “yellow”; in assay [15], “colorless”; with Ralstonia taiwanensis [16] it was “colorless”; with Pseudomonas maltophilia [17], “colorless”; in the assay with Pseudomonas fluorescens [18], “colorless”; with Ralstonia basilensis [19], “colorless”.
For `CCCCCc1cc(=O)cc2oc3cc(NC(=O)CCNC(=O)OC(C)(C)C)ccc3nc1-2` [Nonchlorinated beta-alanyl compound, 7-N—(N′-t-butoxycarbonyl-β-alanyl)amino-1-pentylphenoxazin-3-one], the coloration result in the assay with Pseudomonas maltophilia [1] was “colorless”; in assay [2], “colorless”; in the assay on Ralstonia taiwanensis [3] it was “colorless”; in the assay with Pseudomonas aeruginosa [4] (setting [24]), “purple”; in the assay with Pseudomonas aeruginosa [4] (setting [25]) it was “purple”; in the assay on Pseudomonas aeruginosa [4] (setting [26]) it was “purple”. For the same molecule, the coloration entry is “purple” with Pseudomonas aeruginosa [4] (setting [27]); “colorless” in assay [5]; “yellow” in assay [6]; “colorless” in [7]; “yellow” in [8]; “colorless” with Ralstonia basilensis [9].
In the case of `CCCCCc1cc(=O)cc2oc3cc(NC(=O)[C@@H]4CCC(=O)N4)ccc3nc1-2` [Nonchlorinated pyroglutamyl compound, 7-N-(L-pyroglutamyl)amino-1-pentylphenoxazin-3-one], the coloration entry in assay [10] was “colorless”; in [11], “colorless”; with Pseudomonas aeruginosa [12] (setting [28]), “purple”; with Pseudomonas aeruginosa [12] (setting [29]) it was “purple”; with Pseudomonas aeruginosa [12] (setting [30]), “purple”; in assay [13] it was “yellow”. The coloration entry in [14] is given as “yellow”; in assay [15] it was “colorless”; in the assay on Ralstonia taiwanensis [16] it was “colorless”; in the assay with Pseudomonas maltophilia [17], “colorless”; in the assay on Pseudomonas fluorescens [18] it was “colorless”; in the assay with Ralstonia basilensis [19], “colorless”.
Turning to `Cc1c2nc3ccc(NC(=O)CCN)cc3oc-2c(C)c(=O)c1C.O=C(O)C(F)(F)F` [b-ala-TMP, 7-N-(β-Alanyl)amino-1,2,4-trimethylphenoxazin-3-one trifluoroacetate salt], the coloration result in the assay on Pseudomonas fluorescens [20] was “colorless”; in the assay on Pseudomonas putida it was “colorless”; in [21], “pale pink”; with Pseudomonas aeruginosa [22] (strain ATCC 9027), “pink”; in the assay with Pseudomonas aeruginosa [22] (strain ATCC 10145), “orangy-”; with Pseudomonas aeruginosa [22] (strain ATCC 27853), “pink”. In addition, the coloration entry was “orangy-” in the assay on Pseudomonas aeruginosa [22] (strain of Applicant's collection (r9)), “colorless” in the assay with Pseudomonas aeruginosa [22] (strain of Applicant's collection (r13)), “orange” with Escherichia coli and “colorless” in assay [23].
